From PubChem BioAssay AID624491 (Broad Institute, 2012)
Activity calls are given as the source filed them.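 Rule for the calls: active = fitted curve crossing a set activation limit at or below the highest valid dose tested; inconclusive = flat fit at 30 to 70% activation, or poor fit; inactive = the rest, including signal decreases.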

tested on: D54 ERlucT glycosylation luciferase reporter, luminescence, 24 h; assay: N-linked glycosylation inhibitors, luciferase reporter, dose response, D54 ERlucT cells, luminescence, cherry-picks (AID 624491);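 note: signal gain reflects blocked N-linked glycosylation of a luciferase reporter; actives raise luciferase signal so AC26 marks activators of the reporter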

| Structure (SMILES) | AC26 |
| --- | --- |
| COc1ccc2c(c1)C(=O)N1[C@H]3c4cc(OC)ccc4OC[C@@H]3[C@H](c3ccccc3)[C@]1(C)C(=O)N2 | 197 nM |
| CCOC(=O)c1cnc2c(C)cc(C)cc2c1NCCCN1CCOCC1 | 3470 nM |
| O=C(Nc1ccc2oc(-c3cccnc3)nc2c1)c1ccc([N+](=O)[O-])o1 | 1130 nM |
| Cc1c2cnccc2c(C)c2c1oc1ccccc12 | 2820 nM |
| COc1ccccc1N1CC(O)=C(c2nc3ccccc3c(=O)[nH]2)C1=N | 1320 nM |
| Cc1cccc(N2C(=O)N3[C@H](c4ccc(F)cc4)[C@@H]4C(=O)N(C5CCCCC5)C(=O)[C@@H]4[C@]3(Cc3ccccc3)C2=O)c1 | 692 nM |
| CSc1ncnc2c1ncn2CCCN[C@H](C)c1cccc2ccccc12 | 679 nM |
| COc1cc(COCC(O)CN2CCN(CCN3C(=O)c4cccc5cccc(c45)C3=O)CC2)cc(OC)c1OC (stereo not drawn) | 1230 nM |
| O=C(CN1C(=O)NC(c2ccccc2)(c2ccccc2)C1=O)Nc1ccc(N2CCOCC2)cc1 | 4200 nM |
| Cc1nc([N+](=O)[O-])c(Br)n1Cc1ccc(Cl)c(Cl)c1 | 885 nM |
| COc1ccc(NC(=O)C2Cc3c(-c4cccc(NC(C)=O)c4)ccnc3O2)cc1OC (stereo not drawn) | 2270 nM |
| CCc1cc2c(=O)n(Cc3ccco3)c(SCc3c(C)noc3C)nc2s1 | 249 nM |
| Cc1cc(C)nc(SC2=CS(=O)(=O)c3ccccc32)n1 | 4210 nM |
| CCN(CC)S(=O)(=O)c1cccc(NC(=O)CN2C(=O)NC3(CCC(C)CC3)C2=O)c1 (stereo not drawn) | 876 nM |
| Cn1c(=O)cc2c3c(c(N4CCCCC4)ccc31)C(=O)c1ccccc1-2 | 4360 nM |
| COc1ccc(/C=N/NC(=O)c2nc(-c3ccccc3)cc(-c3ccccc3)n2)cc1O | 685 nM |
| Cc1cc(N2CCCCC2)nc(NCc2ccccc2)n1 | > 19500 nM (inactive) |
| O=c1cc(N/N=C/c2ccccc2)[nH]c(=O)[nH]1 | 14400 nM |
| Cc1ccc(-c2nc(N(C)C3CCN(C)CC3)c3ccccc3n2)cc1 | 4000 nM |
| COc1ccc(/C=N\NC(=O)c2ccccc2F)cc1COc1ccc(F)cc1F | 3550 nM |
| CCOC(=O)c1c(NC(=O)c2cc3n(n2)C(C(F)(F)F)CC(c2cccs2)N3)sc(C)c1C (stereo not drawn) | 5140 nM |
| Cc1cc(C)cc(NC2=NC3(CCCCC3)N=C(N)N2)c1 | 545 nM |
| COc1cc(OC)c2nc(C)c3c(c2c1)N(c1ccc(O)cc1)CC3 | 1190 nM |
| COc1ccc([C@@H]2[C@@H]3C(=O)N(C(C)(C)C)C(=O)[C@@H]3[C@]3(Cc4ccccc4)C(=O)N(c4cccc(C)c4)C(=O)N23)cc1 | 1300 nM |
| Cc1nc(-c2ccccc2)sc1-c1nc(-c2ccncc2)ncc1S(=O)(=O)c1ccccc1 | 956 nM |

| Structure (SMILES) | AC26 |
| --- | --- |
| Cc1ccc(OCCNC(=O)C(=O)NCc2ccco2)cc1 | 6100 nM |
| Cn1c(-c2ccccc2)c(/C=N/NC(=O)c2cccnc2)c2ccccc21 | 247 nM |
| Cn1nc(C(=O)Nc2cccc(S(=O)(=O)N3CCCCC3)c2)c2ccccc2c1=O | 284 nM |
| Cn1c(=O)[nH]c(=O)c2c1nc(N(CCO)Cc1ccccc1)n2CCCc1ccccc1 | 800 nM |
| CC(C)CC(NC(=O)c1ccc(Cl)cc1)C(=O)OCC(=O)c1ccc2c(c1)NC(=O)CO2 (stereo not drawn) | 4090 nM |
| O=C(N/N=C/c1cccnc1)c1cc(-c2ccccc2OCc2ccccc2)n[nH]1 | 1890 nM |
| CC(Nc1nc(-c2ccccc2)nc2ccccc12)c1ccccc1 (stereo not drawn) | 80.3 nM |
| Cc1ccnc(NC(=O)C(Cc2ccccc2)NC(=O)c2ccccc2)c1 (stereo not drawn) | 564 nM |
| O=C(COc1ccccc1CNCc1ccccc1)Nc1ccccc1 | 850 nM |
| COc1ccc(-c2[nH]nc(-c3ccccc3)c2-c2nc3ccccc3[nH]2)cc1 | 3900 nM |
| C=CCn1c(SCC(=O)c2[nH]c(C)c(C(=O)OC)c2C)nc2scc(-c3ccc(OC)c(OC)c3)c2c1=O | 703 nM |
| c1ccc(C2=Nn3c(nnc3-c3n[nH]c4c3CCC4)SC2)cc1 | 4020 nM |
| COC(=O)C1=C(c2cc3ccccc3s2)C[C@@H]2CC[C@H]1N2C(=O)N1CCOCC1 | 13600 nM |
| Cn1c(SCC(=O)c2ccc(F)cc2)ncc(C(=O)Nc2ccccc2)c1=O | 4770 nM |
| CC(=O)c1ccc(Oc2cc(C)nc(-n3nc(C)cc3C)n2)cc1 | 726 nM |
| COc1ccc(C(=O)NCC(c2ccco2)N2CCc3ccccc32)cc1 (stereo not drawn) | 2300 nM |
| COc1ccc(-c2n[nH]c3c2CN(C(=O)c2ccc(OC)c(OC)c2)CC3)cc1 | 1760 nM |
| COc1ccc2c(c1)[C@H]1[C@H](CO2)[C@H](c2ccccc2)[C@]2(C)C(=O)Nc3cc(F)ccc3C(=O)N12 | 19 nM |
| COC(=O)CNC(c1ccccc1)c1cc(Br)ccc1NC(=O)CCN1CCOCC1 (stereo not drawn) | 4810 nM |
| CCOc1ccc(OCC)c(NC(=O)c2nnn(CC(=O)Nc3cc(C)cc(C)c3)c2N)c1 | 6440 nM |
| CNc1ccc(Br)cc(C(=O)/C=C/c2ccc(Cl)cc2Cl)c1=O | 8890 nM |
| Nc1nc(-c2ccccc2)cc(-c2ccccc2O)n1 | 4980 nM |
| COc1cc(C2Sc3ccccc3NC3=C2C(=O)OC3)cc(OC)c1OC (stereo not drawn) | 12300 nM |
| O=C(NCCCN1CCOCC1)c1cc(-c2cccs2)on1 | 3670 nM |
| CC12CC[C@H]3[C@@H](CCC4(O)C[C@H](O)CCC34/C=N/NC(=O)c3ccccc3[N+](=O)[O-])C1(O)CCC2C1=CC(=O)OC1 (stereo partly drawn) | 4280 nM |

| Structure (SMILES) | AC26 |
| --- | --- |
| CCOc1ccc(NC(=O)C(=O)NCCN2CCN(S(=O)(=O)c3ccc(C)cc3)CC2)cc1 | 4890 nM |
| NC(=O)c1ccc(NC(=O)CN2C(=O)NC(c3ccccc3)(c3ccccc3)C2=O)cc1 | 3410 nM |
| Cc1ccc(/C=N/NC(=O)C2COc3ccccc3O2)s1 (stereo not drawn) | 307 nM |
| COc1cc2c(cc1OC)C(=O)N1[C@H]3c4cc(Cl)ccc4OC[C@@H]3[C@H](c3ccccc3)[C@]1(C)C(=O)N2 | 609 nM |
| COc1ccc(CCNc2c3ccccc3nc3ccccc23)cc1OC | 1040 nM |
| CCOc1ccc(S(=O)(=O)N2CCN=C2c2ccccc2)cc1 | 3390 nM |
| Cc1ccc(C)c(OCC(O)CN2CCN(CCN3C(=O)c4cccc5cccc(c45)C3=O)CC2)c1 (stereo not drawn) | 755 nM |
| CCN(CC)S(=O)(=O)c1cccc(C(=O)OCC(=O)Nc2ccc3c(c2)c2ccccc2n3CC)c1 | 4110 nM |
| Clc1cccc(Cl)c1Cn1cnc2c(NCc3ccco3)ncnc21 | 17300 nM |
| NS(=O)(=O)c1ccc(NC(=O)c2cccc3cc4ccccc4nc23)cc1 | 1320 nM |
| C[C@@H]1[C@@H](Sc2ccccc2)CC(=O)O[C@@H]1c1ccc(-c2ccccc2)cc1 | 920 nM |
| CNC(=O)c1cccn(Cc2ccc(C(F)(F)F)cc2)c1=O | 3370 nM |
| COc1ccc(-n2c(=S)[nH]c3cc(C(=O)Nc4ccc(F)cc4)ccc3c2=O)c(OC)c1 | 4550 nM |
| COc1cc2c(cc1OC)C(c1cccs1)N(C(=O)c1cccc(S(=O)(=O)N(C)C)c1)CC2 (stereo not drawn) | 1320 nM |
| CC(=O)Nc1cccc(-c2ccnc3c2CC(C)(C(=O)NCCC(F)(F)F)O3)c1 (stereo not drawn) | 4320 nM |
| COc1ccc(C(=O)/C=C/c2ccc(N(C)C)cc2)c(OC)c1 | 11700 nM |
| O=S(=O)([N-]c1nc2ccccc2nc1-n1cc[n+](Cc2ccccc2)c1)c1ccc(Br)cc1 | 236 nM |
| CN(Cc1ccccc1)c1nc2c(c(=O)[nH]c(=O)n2C)n1CCCc1ccccc1 | 2830 nM |
| COc1cc(-c2nc(-c3ccccc3)c(-c3cccs3)[nH]2)cc(OC)c1O | 6100 nM |
| O=C(Cn1cnc2c(NCc3ccccc3)ncnc21)NCc1ccccc1 | 1760 nM |
| Cc1cc(-n2c(C)cc(C(=O)CCl)c2C)no1 | 2160 nM |
| Cc1cnc(NC(=O)c2cc(S(=O)(=O)N(C)C)ccc2N2CCCC2)s1 | 10.7 nM |
| COc1ccc(-c2cc(-c3ccc(O)cc3)nc(N)c2C#N)cc1OC | 4050 nM |
